Laboratory results published in article PMC4192597, “Antimicrobials, Stress and Mutagenesis” (PLoS Pathogens, 2014).
≈ marks a conversion by molar mass, not a printed value.

What was measured:
[1] = tested on: E. coli stress response genes; settings: kanamycin 5 μg/ml, ref Kohanski,2007, cited from earlier work
[2] = tested on: E. coli stress response genes (strain MG1655); assay: Relative gene expression of stress response genes by quantitative real-time PCR; assay type: cell-based, Escherichia coli; settings: qPCR, 20 minutes exposure vs non-treated bacteria; on Result, cpxR: key: NDE: non-differentially expressed, p-value ≥ 0,05; UP: upregulated, p-value ≤ 0,05; DOWN: downregulated, p-value ≤ 0,05; on Result, oxyR: key: NDE: non-differentially expressed, p-value ≥ 0,05; UP: upregulated, p-value ≤ 0,05; DOWN: downregulated, p-value ≤ 0,05; on Result, rpoE: key: NDE: non-differentially expressed, p-value ≥ 0,05; UP: upregulated, p-value ≤ 0,05; DOWN: downregulated, p-value ≤ 0,05
Procedure: Preparation of each of the six treatments and the control samples was carried out by two operators on three consecutive days, thereby comprising three biological replicates for each of the six experimental and one control groups. To obtain the starting material for the experiment, a fresh bacterial culture was grown from a glycerol stock on Mueller-Hinton (MH) agar plates at 37°C for 18–24 hours. One well-isolated colony per biological replicate was used to inoculate 2 ml of liquid MH (Sigma) in a 10 ml sterile polypropylene tube and incubated at 37°C for 16 hours with mild shaking. The overnight (ON) culture was then diluted 1∶100 in MH, subdivided into seven 10 ml aliquots and incubated in 50 ml-Falcon tubes at 37°C for 2.5 hours at 220 rpm. When the OD600 of bacterial cultures reached 0.5–0.7, respective antibiotics and AMPs were added to a concentration to match with those used in the mutagenesis experiments. These bacterial cultures were incubated for 20 minutes at 37°C with gentle shaking. Two ml of bacterial cultures from each treatment and the control were collected, immediately centrifuged at 10000 g for 2 minutes and the supernatant was removed to stop the treatment. The bacterial pellet was then resuspended in 1 ml MH, followed by an addition of 1 ml of RNAprotect Bacteria Reagent (Qiagen), 5 minutes incubation and centrifugation at 10000 g for 2 minutes at room temperature. The supernatant was discarded and the bacterial pellet was immediately frozen and stored at −80°C until RNA extraction.
Total RNA was isolated using RNeasy kit (Qiagen) according to the manufacturer's instructions and eluted in 50 µl of RNase-free water. The nucleic acid yield and purity were determined by measuring the optical density at A260/280 using a Nanodrop spectrophotometer (Thermo Scientific). RNA samples were treated with TURBO DNase (Life Technologies). Briefly, ten µg of RNA were used in a total volume of 500 µl containing 20 units of TURBO DNase, incubated for 30 minutes at 37°C, immediately followed by RNeasy (Qiagen) cleanup and elution in 30 µl of RNase-free water. Following DNase treatment, RNA integrity was assessed using Agilent RNA 6000 Nano kit and 2100 Bioanalyzer instrument (both Agilent Technologies).
High-Capacity cDNA Reverse Transcription Kit with RNase Inhibitor (Applied Biosystems) was used for cDNA synthesis. Initially, to ensure linear conversion of the transcripts, the dynamic range of reverse transcription reaction was tested by performing a standard curve with cDNA, synthesised using various input amounts of pooled RNA. Total RNA (250 ng per reaction) and random primers were used for cDNA synthesis. To obtain sufficient amount of cDNA, several batches of 20 µl RT reactions were pooled, diluted 50-fold with RNase-free water and stored in single-use aliquots at −80°C until further use. All 21 samples were tested for presence of contaminating genomic DNA by running the mdoG assay with cDNA and the respective no reverse transcription (−RT) controls.
Escherichia coli strain K-12 substrain MG1655 complete genome (accession U00096) sequence was downloaded from NCBI database (www.ncbi.nlm.nih.gov) and used for primer design. Target sequence accession number, location of the amplicon, amplicon length and primer sequences for each assay can be found in table S2. Primers were designed using Primer Express software (Applied Biosystems) and optimized for annealing temperature of 60°C. Each primer pair and amplicon were checked for secondary structure formation using Oligo Tool (Integrated DNA technologies, http://eu.idtdna.com/analyzer/Applications/OligoAnalyzer/).

E. coli MG1655 [3] = assay: Minimal inhibitory concentration (MIC), micro-dilution; assay type: cell-based, Escherichia coli; settings: inoculum 2×10^8 cfu/ml, 24 h, liquid MH medium, 37°C
Procedure: E. coli K-12 MG1655 was used for all experiments, grown in liquid Mueller-Hilton (MH) agar or agarose, unless otherwise indicated. All experiments were carried out at 37°C.
MICs were determined according to CLSI recommendations by a micro-dilution method with the exception that the inoculum size that was adjusted to 2×10^8 cfu/ml from a regrowth of overnight cultures to be consistent with the mutagenesis experiments. […] Polypropylene non-binding plates (Th. Geyer, Germany) were used for all experiments.

E. coli MG1655 [4] = assay: microbe, parasite or virus in culture; assay type: cell-based, Escherichia coli; settings: 4 hours, 50% reduction of CFUs vs control, Mueller Hinton Broth, 37°C, five replicates, repeated twice
Procedure: The MIC50s for all antimicrobials were determined by inoculating strains grown to mid-log phase into the wells of a 96-microwell plate. Approximately 10^2 cells from overnight cultures were inoculated into tubes containing 10 ml of Mueller Hinton Broth medium, and the tubes were incubated at 37°C with strong shaking until the mid-log phase of growth (approximately 10^8 cells/ml). […] The plates were incubated at 37°C for 4 h with continuous shaking in a plate reader (Synergy 2, BioTeK). After four hours, aliquots from wells with OD^600 readings ranging from 10 to 90% values in comparison with the control, were serially diluted in sterile 0.9% NaCl, and incubated during 1 hour to allow the resolution of filaments as consequence of SOS activation, if any. Bacterial suspensions were plated in Mueller Hinton Broth agar plates to estimate the viability as colony forming units (CFUs). Five replicates per concentration were prepared and the experiments were repeated twice.

E. coli MG1655 [5] = assay: Killing by AMPs under thiourea ROS scavenger; assay type: cell-based, Escherichia coli; settings: thiourea 100 mM (Figure S3)
Procedure: SOS and rpoS mediated mutagenesis are well supported by empirical work, and it was recently proposed that antibiotics promote ROS formation and kill bacterial by lethal induction of hydroxyl-mediated DNA damage. Here we explored this new and debated proposition also for AMPs. We assessed AMP killing curves in E. coli MG1655 in the presence of the ROS scavenger thiourea (100 mM) and used Kanamycin as positive control.
Kanamycin was used a positive control. The procedure was the same as described in this work elsewhere for MIC50 (Fig. S3).

[6] = normalized to arcA, mdoG, tus, Pexiganan 16, Melittin 16, Kanamycin 16, Ciprofloxacin 0.5, Lysozyme 128, Ampicillin 32 μg/ml, three biological replicates

## NC[C@H]1O[C@H](O[C@H]2[C@H](O)[C@@H](O[C@H]3O[C@H](CO)[C@@H](O)[C@H](N)[C@H]3O)[C@H](N)C[C@@H]2N)[C@H](O)[C@@H](O)[C@@H]1O [Kanamycin]
[1]; 30 min
  expression, rpoE (microarray database): 2.118
[1]; 60 min
  expression, marR (microarray database): 8.767
  expression, phoP (microarray database): 2.411
[1]; 120 min
  expression, lexA (microarray database): 3.48
  expression, oxyR (microarray database): 3.362
[2]; REST 2009 randomisation test
  Result, cpxA: NDE
  Result, cpxR: NDE
  Result, dinB: NDE
  Result, lexA: NDE
  Result, marR: NDE
  Result, oxyR: NDE
  Result, phoP: NDE
  Result, phoQ: NDE
  Result, recA: NDE
  Result, rpoE: NDE
  Result, rpoS: NDE
  Result, umuC: NDE
[2]; [6]
  Expression, cpxA (Envelope stress): 1.069
  Expression, cpxR (Envelope stress): 0.812
  Expression, dinB (SOS response): 1.083
  Expression, lexA (SOS response): 1.302
  Expression, marR (Independent multiple antibiotic resistance): 1.073
  Expression, oxyR (Oxidative stress): 1.333
  Expression, phoP (Envelope stress): 0.94
  Expression, phoQ (Envelope stress): 0.769
  Expression, recA (SOS response): 1.331
  Expression, rpoE (Envelope stress): 1.236
  Expression, rpoS (Sigma S response): 0.967
  Expression, umuC (SOS response): 0.974
E. coli MG1655 [3]
  MIC: 2 µg/mL (≈ 4.13 µM)
E. coli MG1655 [4]
  MIC50: 1.6 µg/mL
E. coli MG1655 [5]
  killing / sensitivity in the presence of the ROS scavenger thiourea: reduced sensitivity
